Measured values as given in US9707243B2, “Topical composition with vitamin D3” (priority 2014, dated 2017).

Assay: Randomized control study of daily topical application in women with low vitamin D
Type: in vivo, human
Settings: 3 months
Description: A study was carried out on 50 women with low vitamin D. The women were healthy and unmarried. Age, weight, height, and detailed medical history were recorded. Meticulous clinical examination was performed to rule out any diseases. A complete blood picture, including serum calcium, phosphorous, alkaline phosphatase, Parathormone and 25 Hydroxy-vitamin D (25OHD), was obtained. Two women had >30 ng/mL of 25OHD and were excluded from the study. The 25-Hydroxy Vitamin D3 level was measured in house by chemiluminescence immunoassay (CLIA), and 30 ng/mL was taken as normal, 21-29 ng/mL as insufficiency and 20 ng/mL as deficiency.
The participants were divided into two groups of 24 women each. All participants unequivocally agreed not to change their dietary habits and life style until the study was over. The group of women participating in the study were asked to apply the topical composition with Vitamin D3. Each gram of the composition delivered 5000 IU of vitamin D3. The second group used 1 gram of aloe vera gel. The participants had no knowledge to which group they belong. A second blood sample was taken at the end of 3 months, and the data was entered in the database and analyzed using a t-test to compare means between the two groups for all the parameters tested before and after topical use of VD and AVG. […]

## C=C1CC[C@H](O)C/C1=C/C=C1\CCC[C@]2(C)[C@@H]([C@H](C)CCCC(C)C)CC[C@@H]12 [Vitamin D3, cholecalciferol]
  safety of delivery through the dermal route: can safely be delivered through the dermal route
